Experimental data as given in patent US20040171594A1, “Use of bis-acid(5-androsten-17-one-3beta-hydroxyl)diester for manufacture pharmaceuticals” (priority 2001, published 2004).
Marks after values point to notes of the source that are not given here.

Key:
[1] = system: osteoporosis model of rats induced by Retinoic acid; assay: Osteoporosis model of rats induced by Retinoic acid; assay type: in vivo, SD rats; settings: Retinoic acid 70 mg/kg, specimen orally 30 days (dose not given), right thighbone, n=8
Text: After continuously administering specimen for 30 days, killed rats and took right thighbone of rat.
Took same part tissue of right thighbone, routinely decalcified, enveloped with olefin, and dyed with HE. Observed with ordinary optics microscope, import all imagines into computer with A/D conversion of pickup camera, via dealing with image analysis software obtained index of guide line as follows: relative bone volume, indicating percentage that bone trabecula accounted for medullary cavity, 1.25×10×4 times; average width of bone trabecula, 1.25×10×10 times; amount of cell per area in bone trabecula, gathering same area image (640×480) of bone trabecula with image analysis software, calculating amount of bone cell in corresponding area, 1.25×10×40 times; Average length of bone cell lacuna, 1.25×10×40; Average width of bone cell lacuna, 1.25×10×40. The above five indexes of static state guide-line were all observed for ten eyeshots, calculating their average value.

[2] = system: arrhythmia of rats induced by BaCl2; assay: Arrhythmia of rats induced by BaCl2; assay type: in vivo, SD rats; settings: BaCl2 4 mg/kg, within 60 min, n=10
Protocol: 50 male SD rats, weighing (236.7±13.7)g, were anaesthetized with 10% chloral hadrate 0.3 g/kg intraperitoneally, recorded ECG with intubating of external jugular vein administering drug. As soon as injected with BaCl2 4 mg/kg, rats usually emerged VP and VT quickly and developed to be the steady and typical double-aspect arrhythmia. After immediately injected with drug or 0.5% CMC-Na into vein, recorded the time of recovering and maintaining sinus rhythm within 60 min as standard, and compared the function between five groups. […] Time of maintaining sinus rhythm was longer and acted more quickly than that of Amiodarone group.

[3] = system: myocardium injury model of rats induced by ISO; assay: Myocardium injury (myocardial ischemia) model of rats induced by ISO; assay type: in vivo, SD rats; settings: drug 0.76 mg/kg, n=8; for Σ ST: rats, ISO s.c.
Protocol: SD rats were measured ECG by chest leads before experiment, abandoned those of abnormal or arrhythmia at T wave, ST sect. […] They were divided into four groups according to Table 4, eight rats in each group. As dose of Table 4, tested compounds or 0.5% CMC-Na solution with same volume were administered through duodenum for 30 minutes, rats were anaesthetized with aether. After ECG was recorded, Isoproterenol (ISO) was administered by subcutaneous injection from the back, recorded ECG again after 30 minutes. After specimen was intragastricly granted for 24 hours and 48 hours, every group was administered simples again and recorded ECG again in terms of the methods stated above. After 72 hours, bleeding from the ophthalmic venous plexus and separated blood serum through centrifugation. Killed the rats, scissor the tip of the heart to prepare 10% myocardial tissue homogenate with 4° C. physiological saline as standby.
Measured each rat's value of ST before first administering ISO. And after first, second and third subcutaneous injection for 30 minutes, calculated mv mean value of ΣST as guide line of myocardium injury and performed t test.
The changes of MDA LDH and CK in serum were measured with agent kits.
The changes of MDA, LDH and CK in serum and myocardial tissue homogenate were measured with agent kits.

[4] = system: thymus and spleen of mice; assay: Indexes of thymus and spleen of mice injected with cyclophosphamide; assay type: in vivo, NIH mice; settings: cyclophosphamide 60 mg/kg i.p., drug 10 mg/kg intragastric for 30 days, n=10
Protocol: Chose 90 healthy NIH mice, weighing (18˜22)g, equal amount of male and female. Every mouse was injected with cyclophos phamide (60 mg/kg, intraperitoneally). […] Administered specimen through intragastric intubation in terms of the dose in Table 8. Continuously administered orally specimen for 30 days, all mice fasted on the 30th day, but were supplied with water. On the 31th day, mice of every group were killed. Weighed their body, thymus and spleen, calculated index of thymus and spleen, compared the difference among each group.

[5] = system: acute renal failure of mice induced by endotoxin; assay: Acute renal failure model induced by endotoxin; assay type: in vivo, NIH mice; settings: drug 10 mg/kg i.p., endotoxin 0.06 g/kg, after five hours, n=10; for GSH-Px: mice kidney homogenate; for BUN / Cr: mice serum
Protocol: After five hours, blood of the mice was collected by removing eyes, assayed Blood Urea Nitrogen (BUN) and Creatinine (Cr) concentration of serum. One kidney of each […] was taken out and made 100 mL/L homogenate, assayed activity of Glutathione Peroxidase (GSH-Px) enzyme.

[6] = system: cerebral ischemia-reperfusion injury of mice; assay: Memory step-through test after cerebral ischemia-reperfusion injury; assay type: in vivo, NIH mice; settings: 4.5 mg/kg intragastric once a day for 10 days, n=10
Protocol: After weighed, NIH mice were anaesthetized with Penbotarbital 60 mg/kg, then performed operation. Fixed at supine position, the skin in the middle of the deck was dissected about 7 mm. Separated common carotid artery of two sides of neck, surrounded with the thread of No “0”. Common carotid artery of two sides was chipped with artery clip for 2 minutes to induce cerebral ischemia. In the end of ischemia treatment, artery clip was loosed and blood perfusion was restored, rest for five minutes, repeated twice as that. After blocking blood flow of carotid, sutured incision. Recorded trail bloodletting, bloodletting quantity was no more than 10% of total blood quantity. After operation, […] were administered with proper physiological saline through intraperitoneal injection in order to supple capacity of blood. After pseudo operation group was anaesthetized, carotid of two sides was separated but blood flow was not blocked, without being bloodletting too.
In experiment appearance of body temperature lowering and righting reflex disappearing was as positive guide-line of ischemia, discarding those without typical guide line of ischemia. In the procedure of ischemia or after operation, some of animals would be dead. […] According to the dose of Table 7, animals were administered with medicine by intragastric intubation once a day, and continue administered drug for 10 days. After 10 days, memory test was performed.

[7] = myocardial tissue homogenate of rats with ISO myocardium injury
[8] = serum of rats with ISO myocardium injury, after 72 hours

Substance | Amount of cell per area in bone trabecula [1] | Average width of bone trabecula [1] | Relative bone volume [1] | Activity of CK [3, 7] | Activity of LDH [3, 7] | MDA [3, 7] | Σ ST ([3]; 30 min) | Σ ST ([3]; 24 h) | Σ ST ([3]; 48 h) | Σ ST ([3]; 72 h) | Activity of CK [3, 8] | Activity of LDH [3, 8] | MDA [3, 8] | Index of spleen [4] | Index of thymus [4] | GSH-Px [5] | BUN [5] | Cr [5] | Latency of dark cabin, Memory [6] | Latency of dark cabin, Study [6] | also measured
butanediol-disulphonic acid-(5-androsten-17-one-3β-ol)-diester [Compound I] | 31.84 ± 3.94 | 61.37 ± 4.71 μm | 29.84 ± 3.56 % | 214.27 ± 40.62 U/L | 159.82 ± 31.69 U/L | 115.02 ± 10.34 nmol/g | 0.49 ± 0.12 mv | 0.54 ± 0.12 mv | 0.50 ± 0.06 mv | 0.54 ± 0.08 mv | 242.14 ± 22.72 U/L | 233.35 ± 18.46 U/L | 24.64 ± 2.53 nmol/mL | 69.60 ± 16.10 mg/10 g body weight | 16.44 ± 3.25 mg/10 g body weight | 37.6 ± 15.1 nU · L^−1 | 344.4 ± 40.6*** 10 mg · L^−1 | 34.41 ± 9.65*** 10 mg · L^−1 | 46.5 ± 13.8 s | 25.7 ± 14.8 s | time of maintaining sinus rhythm ([2]; drug 0.5 mg/kg into vein): 45.478 ± 5.271 min; time of storing sinus rhythm ([2]; drug 0.5 mg/kg into vein): 6.752 ± 4.132 min; Number of error [6]: 3.1 ± 1.7 n
pentanediol-disulphonic acid-(5-androsten-17-one-3β-ol)-diester [Compound J] | 29.84 ± 3.16 | 67.84 ± 4.68 μm | 37.55 ± 3.26 % | 268.28 ± 42.59 U/L | 197.45 ± 26.88 U/L | 95.67 ± 15.67 nmol/g | 0.54 ± 0.12 mv | 0.52 ± 0.07 mv | 0.56 ± 0.07 mv | 0.54 ± 0.08 mv | 239.40 ± 16.15 U/L | 257.05 ± 31.30 U/L | 26.47 ± 3.25 nmol/mL | 61.29 ± 15.34 mg/10 g body weight | 17.24 ± 3.34 mg/10 g body weight | 32.2 ± 13.1 nU · L^−1 | 337.6 ± 32.8*** 10 mg · L^−1 | 37.60 ± 8.44*** 10 mg · L^−1 | 52.0 ± 17.2 s | 30.8 ± 15.0 s | time of maintaining sinus rhythm ([2]; drug 1.5 mg/kg into vein): 51.762 ± 6.275 min; time of storing sinus rhythm ([2]; drug 1.5 mg/kg into vein): 3.584 ± 2.471 min; time of maintaining sinus rhythm ([2]; drug 2.5 mg/kg into vein): 59.248 ± 1.527 min; time of storing sinus rhythm ([2]; drug 2.5 mg/kg into vein): 0.845 ± 1.529 min; Number of error [6]: 3.2 ± 1.6 n
